From patent US11149033B2, “Heteroaryl compound, enantiomer, diastereomer or pharmaceutically acceptable salt thereof, and antiviral composition containing same as active ingredient” (priority 2016, dated 2021)

What was measured:
A/Perth/16/2009 (H3N2) = assay: Antiviral activity (drug efficacy evaluation by concentration) against A/Perth/16/2009 (H3N2); assay type: cell-based, A type influenza virus; details: Influenza A virus, H3N2, A/Perth/16/2009 (H3N2); read-out: EC50 A/Perth/16/2009 (H3N2)
[1] = CC50 B/Florida/04/2006, cytotoxicity in the B/Florida/04/2006 assay
[2] = CC50, third EC50/CC50 column pair (c7), beside the EC50 of c6

Structure (SMILES) | EC50 (A/Perth/16/2009 (H3N2)) | melting point | CC50 (in vitro; [1]) | CC50 (in vitro; CC50, beside the EC50 of c2) | CC50 (in vitro; CC50, beside the EC50 of c4) | CC50 (in vitro; [2])
c1ccc(-c2ccccc2CSc2nnc(-c3cnn(-c4ccccc4)c3)o2)cc1 [Compound 36, 2-(([1,1′-biphenyl]-2-ylmethyl)thio)-5-(1-phenyl-1H-pyrazol-4-yl)-1,3,4-oxadiazole] | > 50 µM | 114.2 °C | > 50 µM | – | – | –
Cc1ccccc1Sc1nnc(CCn2nc(C)c(Br)c2C)o1 [Compound 54, 2-(2-(4-bromo-3,5-dimethyl-1H-pyrazol-1-yl)ethyl)-5-(o-tolylthio)-1,3,4-oxadiazole] | – | 103.6 °C | > 50 µM | – | – | –
Cc1ccccc1CSc1ncc(C(=O)n2nc(C)c(Br)c2C)o1 [Compound 55, (4-bromo-3,5-dimethyl-1H-pyrazol-1-yl)(2-((2-methylbenzyl)thio)oxazol-5-yl)methanone] | – | 123.6 °C | > 50 µM | – | – | –
Cc1nn(C(=O)c2ccc(Sc3ccccc3C(C)C)o2)c(C)c1Br [Compound 56, (4-bromo-3,5-dimethyl-1H-pyrazol-1-yl)(5-((2-isopropylphenyl)thio)furan-2-yl)methanone] | – | 169.7 °C | > 50 µM | – | – | –
Cc1nn(C(=O)c2ccc(Oc3ccccc3C(C)C)o2)c(C)c1Br [Compound 57, (4-bromo-3,5-dimethyl-1H-pyrazol-1-yl)(5-(2-isopropylphenoxy)furan-2-yl)methanone] | – | 103.3 °C | > 50 µM | – | – | –
OC(c1cccc(-c2ccccc2)c1)c1nnc(Cc2ccc(Br)cc2)o1 (centres unmarked) [Compound 70, [1,1′-biphenyl]-3-yl(5-(4-bromobenzyl)-1,3,4-oxadiazol-2-yl)methanol] | 37.5 µM | 137.6 °C | > 50 µM | – | – | –
Cc1cccc(C)c1Nc1nnc(C(O)c2ccccc2)o1 (centres unmarked) [Compound 77, (5-((2,6-dimethylphenyl)amino)-1,3,4-oxadiazol-2-yl)(phenyl)methanol] | – | 179 °C | > 50 µM | – | – | –
Cc1cccc(C)c1Nc1nnc(C(=O)c2ccc(F)c(Cl)c2)o1 [Compound 78, (3-chloro-4-fluorophenyl)(5-((2,6-dimethylphenyl)amino)-1,3,4-oxadiazol-2-yl)methanone] | – | 252.8 °C | > 50 µM | – | – | –
CC(C)c1ccccc1/C=C/c1nnc(Cc2ccc(OC(F)(F)F)cc2)o1 [Compound 81, (E)-2-(2-isopropylstyryl)-5-(4-(trifluoromethoxy)benzyl)-1,3,4-oxadiazole] | – | 91.6 °C | – | > 50 µM | > 50 µM | > 50 µM
Brc1ccc(Nc2nnc(/C=C/c3cccc4ncccc34)o2)cc1 [Compound 121, (E)-N-(4-bromophenyl)-5-(2-(quinolin-5-yl)vinyl)-1,3,4-oxadiazol-2-amine] | – | 246.5 °C | – | > 50 µM | > 50 µM | > 50 µM
Brc1ccc(Cc2nnc(/C=C/c3ccccc3Br)o2)cc1 [Compound 128, (E)-2-(4-bromobenzyl)-5-(2-bromostyryl)-1,3,4-oxadiazole] | – | 156.1 °C | – | > 50 µM | > 50 µM | > 50 µM
Clc1ccc(/C=C/c2nnc(Cc3ccc(Br)cc3)o2)cc1Cl [Compound 149, 2-(4-bromobenzyl)-5-(3,4-dichlorostyryl)-1,3,4-oxadiazole] | – | 164.5 °C | – | > 50 µM | > 50 µM | > 50 µM
Clc1ccc(-c2ccccc2/C=C/c2nnc(Cc3ccc(Br)cc3)o2)cc1 [Compound 153, 2-(4-bromobenzyl)-5-(2-(4′-chloro-[1,1′-biphenyl]-2-yl)vinyl)-1,3,4-oxadiazole] | – | 123.7 °C | – | > 50 µM | > 50 µM | > 50 µM
Brc1ccc(Cc2nnc(-c3cc4ccccc4o3)o2)cc1 [Compound 156, 2-(benzofuran-2-yl)-5-(4-bromobenzyl)-1,3,4-oxadiazole] | – | 145.7 °C | – | > 50 µM | > 50 µM | > 50 µM
Clc1ccc2oc(-c3nnc(Cc4ccc(Br)cc4)o3)cc2c1 [Compound 157, 2-(4-bromobenzyl)-5-(5-chlorobenzofuran-2-yl)-1,3,4-oxadiazole] | – | 149.7 °C | – | > 50 µM | > 50 µM | > 50 µM
Clc1ccccc1/C=C/c1nnc(Cc2ccc(Br)cc2)o1 [Compound 166, 2-(4-bromobenzyl)-5-(2-chlorostyryl)-1,3,4-oxadiazole] | – | 136.3 °C | – | > 50 µM | > 50 µM | > 50 µM
Clc1cccc(/C=C/c2nnc(Cc3ccc(Br)cc3)o2)c1 [Compound 167, 2-(4-bromobenzyl)-5-(3-chlorostyryl)-1,3,4-oxadiazole] | – | 105.1 °C | – | > 50 µM | > 50 µM | > 50 µM
Clc1cccc(Cl)c1/C=C/c1nnc(Cc2ccc(Br)cc2)o1 [Compound 168, 2-(4-bromobenzyl)-5-(2,6-dichlorostyryl)-1,3,4-oxadiazole] | – | 139.3 °C | – | > 50 µM | > 50 µM | > 50 µM

Structure (SMILES) | EC50 (A/Perth/16/2009 (H3N2)) | melting point | CC50 (in vitro; [1]) | CC50 (in vitro; CC50, beside the EC50 of c2) | CC50 (in vitro; CC50, beside the EC50 of c4) | CC50 (in vitro; [2])
Cc1cc(Cc2nnc(/C=C/c3ccccc3C(C)C)o2)ccc1Br [Compound 172, 2-(4-bromo-3-methylbenzyl)-5-(2-isopropylstyryl)-1,3,4-oxadiazole] | – | 117.1 °C | – | > 50 µM | > 50 µM | > 50 µM
CC(C)c1ccccc1/C=C/c1nc(Cc2ccc(Br)cc2)no1 [Compound 175, (E)-3-(4-bromobenzyl)-5-(2-isopropylstyryl)-1,2,4-oxadiazole] | – | 81.5 °C | – | > 50 µM | > 50 µM | > 50 µM
Cc1cc(Cc2nnc(/C=C/c3ccc(F)cc3Cl)o2)ccc1Br [Compound 176, (E)-2-(4-bromo-3-methylbenzyl)-5-(2-chloro-4-fluorostyryl)-1,3,4-oxadiazole] | – | 119.9 °C | – | 6.53 µM | > 50 µM | > 50 µM
Fc1ccc(/C=C/c2nnc(Cc3cccc(Br)c3)o2)c(F)c1 [Compound 189, 2-(3-bromobenzyl)-5-(2,4-difluorostyryl)-1,3,4-oxadiazole] | – | 87.7 °C | – | > 50 µM | > 50 µM | > 50 µM
Fc1cc(Cl)ccc1/C=C/c1nnc(Cc2cccc(Br)c2)o1 [Compound 190, 2-(3-bromobenzyl)-5-(4-chloro-2-fluorostyryl)-1,3,4-oxadiazole] | – | 107.2 °C | – | – | 40.1 µM | –
Fc1ccc(/C=C/c2nnc(Cc3ccc(F)c(Br)c3)o2)c(Cl)c1 [Compound 207, 2-(3-bromo-4-fluorobenzyl)-5-(2-chloro-4-fluorostyryl)-1,3,4-oxadiazole] | – | 123 °C | – | > 50 µM | > 50 µM | > 50 µM
Cc1ccc(Br)cc1Cc1nnc(/C=C/c2ccc(F)cc2Cl)o1 [Compound 282, 2-(5-bromo-2-methylbenzyl)-5-(2-chloro-4-fluorostyryl)-1,3,4-oxadiazole] | – | 169.3 °C | – | – | – | –
Fc1ccc(/C=C/c2nnc(Cc3cc(Br)ccn3)o2)c(Cl)c1 [Compound 283, 2-((4-bromopyridin-2-yl)methyl)-5-(2-chloro-4-fluorostyryl)-1,3,4-oxadiazole] | – | 149.5 °C | – | – | – | –
Fc1cc(F)c(/C=C/c2nnc(Cc3cccc(Br)c3)o2)c(Br)c1 [Compound 290, 2-(2-bromo-4,6-difluorostyryl)-5-(3-bromobenzyl)-1,3,4-oxadiazole] | – | 118.2 °C | – | – | – | –
Fc1ccc(/C=C/c2nnc(Cc3cccc(Cl)c3F)o2)c(Cl)c1 [Compound 291, 2-(3-chloro-2-fluorobenzyl)-5-(2-chloro-4-fluorostyryl)-1,3,4-oxadiazole] | – | 118.1 °C | – | – | – | –
Fc1cc(Br)cc(Cc2nnc(/C=C/c3ccc(F)cc3Cl)o2)c1 [Compound 292, 2-(3-bromo-5-fluorobenzyl)-5-(2-chloro-4-fluorostyryl)-1,3,4-oxadiazole] | – | 143 °C | – | – | – | –
Fc1ccc(/C=C/c2nnc(Cc3cccc(Br)c3F)o2)c(Cl)c1 [Compound 293, 2-(3-bromo-2-fluorobenzyl)-5-(2-chloro-4-fluorostyryl)-1,3,4-oxadiazole] | – | 135.8 °C | – | – | – | –
Cc1c(Br)cccc1Cc1nnc(/C=C/c2ccc(F)cc2Cl)o1 [Compound 294, 2-(3-bromo-2-methylbenzyl)-5-(2-chloro-4-fluorostyryl)-1,3,4-oxadiazole] | – | 158.3 °C | – | – | – | –
Cc1ccc2cccc(Cc3nnc(/C=C/c4ccc(F)cc4Cl)o3)c2n1 [Compound 295, 2-(2-chloro-4-fluorostyryl)-5-((2-methylquinolin-8-yl)methyl)-1,3,4-oxadiazole] | – | 191.2 °C | – | – | – | –
COc1ccc2cccc(Cc3nnc(/C=C/c4ccc(F)cc4Cl)o3)c2c1 [Compound 298, 2-(2-chloro-4-fluorostyryl)-5-((7-methoxynaphthalen-1-yl)methyl)-1,3,4-oxadiazole] | – | 179.9 °C | – | – | – | –
Fc1ccc(/C=C/c2nnc(Cc3cccc(C(F)F)c3)o2)c(Cl)c1 [Compound 299, 2-(2-chloro-4-fluorostyryl)-5-(3-(difluoromethyl)benzyl)-1,3,4-oxadiazole] | – | 108.1 °C | – | – | – | –
Cc1ccc(Cc2nnc(/C=C/c3ccc(F)cc3Cl)o2)cc1Cl [Compound 300, 2-(2-chloro-4-fluorostyryl)-5-(3-chloro-4-methylbenzyl)-1,3,4-oxadiazole] | – | 161.4 °C | – | – | – | –
Cc1ccc(Cc2nnc(/C=C/c3ccc(F)cc3N(C)CCc3ccccc3)o2)cc1Br [Compound 305, 2-(2-(5-(3-bromo-4-methylbenzyl)-1,3,4-oxadiazol-2-yl)vinyl)-5-fluoro-N-methyl-N-phenethylaniline] | – | 80.7 °C | – | – | – | –
